Assay type in all cases: cell-based
The test system of assay [1] is Mycobacterium sp. with deposit number of CGMCC No.21272. In words: antibiotic susceptibility experiment. The conditions noted are these: strain CGMCC No.21272 (YT).
Assay [2] concerns Mycobacterium sp. with deposit number of CGMCC No.21273. In words: antibiotic susceptibility experiment. The settings on record: strain CGMCC No.21273 (JD).
Assay [3] concerns Mycobacterium sp. with the deposit number CGMCC No.21272. As to the kind of experiment: BIOLOG chemically sensitive experiments. The settings on record: strain CGMCC No.21272 (YT).
Assay [4] concerns Mycobacterium sp. with deposit number of CGMCC No.21273. In words: BIOLOG chemically sensitive experiments. The conditions noted are these: strain CGMCC No.21273 (JD).

For the molecule Romifloxacin, the Susceptibility degree entry in assay [1] and in assay [2] was “S” throughout.

Consider Penicillin, for which the Susceptibility degree entry in assay [1] and in assay [2] was “R” each time.

For `O=C1CN(/N=C/c2ccc([N+](=O)[O-])o2)C(=O)N1` [Furantoin], the Susceptibility degree entry in assay [1] and in assay [2] was “R” in each case.

As to Cotrimoxazole, the Susceptibility degree result in assay [1] and in assay [2] was “S” in each case.

With `CO[C@H]1/C=C/O[C@@]2(C)Oc3c(C)c([O-])c4c(O)c(cc(O)c4c3C2=O)NC(=O)/C(C)=C\C=C\[C@H](C)[C@H](O)[C@@H](C)[C@@H](O)[C@@H](C)[C@H](OC(C)=O)[C@@H]1C.[Na+]` [Rifamycin SV], the “BIOLOG GEN II (chemically sensitive experiments) Results” value in assay [3] and in assay [4] was “+” throughout.

For the origin of these results see patent EP4578939A1, “MYC[…]. BASED ON VARIOUS CARBON-NITROGEN METABOLIC […], METHOD FOR ISOLATING SAME, AND USE THEREOF” (Peng, Guanghao, priority 2022, dated 2024).
